From ChEMBL document CHEMBL6092203, “Discovery of Novel PROTAC-Based HPK1 Degraders with High Potency and Selectivity for Cancer Immunotherapy” (J Med Chem, 2024)
Active and inactive are the calls of the source. No cut-off for these calls is given here.

Legend:
MC-38 [1] = assay: Synergistic antitumor activity against mouse MC38 cells implanted in C57BL/6J mouse assessed as reduction in tumor weight at 100 mg/kg, po QD administered for 3 to 4 weeks in presence of 5 mg/kg anti-PD1 and measured twice a week (reference value: 1.79 +/- 0.24 g); assay type: functional; settings: time 3-4 weeks
[2] = Tmax in male Sprague-Dawley rat at 30 mg/kg/day, po measured at day 1; assay type: ADME, organism-based; settings: in vivo, time 1 day
MC-38 [3] = assay: Synergistic antitumor activity against mouse MC38 cells implanted in C57BL/6J mouse assessed as reduction in tumor volume at 1 mg/kg, po bid administered for 3 to 4 weeks in presence of 5 mg/kg anti-PD1 and measured twice a week (reference value: 1549.22 +/- 217.92 mm3); assay type: functional; settings: time 3-4 weeks
in vivo [4] = settings: C57BL/6J, mouse, po, 10 mg/kg
in vivo [5] = settings: beagle, dog, po, 5 mg/kg
Description: Oral bioavailability in Beagle dog at 5 mg/kg measured upto 24 hrs by LC-MS analysis

[6] = Toxicity in C57BL/6J mouse assessed as change in body weight at 100 mg/kg, po qd measured after 28 days; assay type: organism-based; settings: in vivo, 672 h, time 28 day
[7] = Clearance in mouse at 2 mg/kg, iv measured upto 24 hrs by LC-MS analysis; assay type: ADME, organism-based; settings: in vivo
[8] = Tmax in female Sprague-Dawley rat at 100 mg/kg/day, po measured at day 1; assay type: ADME, organism-based; settings: in vivo, time 1 day
in vivo [9] = settings: C57BL/6J, mouse, po, 10 mg/kg; remark: listed apart in the source
MC-38 [10] = assay: Synergistic antitumor activity against mouse MC38 cells implanted in C57BL/6J mouse assessed as reduction in tumor weight at 0.1 mg/kg, po bid administered for 3 to 4 weeks in presence of 5 mg/kg anti-PD1 and measured twice a week (reference value: 1.79 +/- 0.24 g); assay type: functional; settings: time 3-4 weeks
[11] = Drug metabolism in dog hepatocytes assessed as phase 2 metabolites formation at 10 uM incubated for 120 mins by UHPLC-UV/MS/MS method; assay type: ADME, cell-based, Canis lupus familiaris, Hepatocyte; settings: 2 h
[12] = Toxicity in Sprague-Dawley rat assessed as efficacy dose exposure measured after 14 days; settings: in vivo
hERG (KCNH2) = hERG (KCNH2) (Homo sapiens, UniProt Q12809); assay: Inhibition of human ERG at 3 uM by patch clamp method relative to control; assay type: toxicity
[13] = Initial plasma concentration in C57BL/6J mouse at 2 mg/kg, iv measured upto 24 hrs by LC-MS analysis; assay type: ADME, organism-based
[14] = Metabolic stability in rat hepatocytes assessed as intrinsic clearance at 1 uM incubated for 90 mins by LC-MS/MS method; assay type: ADME, cell-based, Hepatocyte; settings: 1.5 h
in vivo [15] = settings: female, Sprague-Dawley, rat, po, 2 mg/kg
in vitro [16] = settings: mouse, hepatocytes
[17] = In vivo induction of HPK1 degradation in C57BL/6J mouse spleen at 0.5 mg/kg administered as single dose and measured after 8 to 24 hrs; assay type: functional; settings: time 8-24 hrs
[18] = AUCinfinity in Sprague-Dawley rat at 2 mg/kg, iv measured upto 24 hrs by LC-MS analysis; assay type: ADME, organism-based; settings: in vivo
[19] = Drug metabolism in human hepatocytes assessed as phase 1 metabolites formation at 10 uM incubated for 120 mins by UHPLC-UV/MS/MS method; assay type: ADME, cell-based, Hepatocyte; settings: 2 h
[20] = Toxicity in C57BL/6J mouse assessed as body weight loss at 0.02 to 0.5 mg/kg, po qd administered for 3 to 4 weeks; assay type: organism-based; settings: in vivo, dose lower 0.02 mg/kg, time lower 3 weeks, dose upper 0.5 mg/kg, time upper 4 weeks
[21] = Tmax in Sprague-Dawley rat at 1 mg/kg, po measured upto 24 hrs by LC-MS analysis; assay type: ADME, organism-based; settings: in vivo
[22] = Drug distribution in rat lymph node measured after 0.5 to 6 hrs; assay type: ADME, tissue-based; settings: in vivo, time 0.5-6 hrs
in vivo [23] = settings: male, Sprague-Dawley, rat, po, 2 mg/kg
[24] = Half-life in Sprague-Dawley rat at 1 mg/kg, po measured upto 24 hrs by LC-MS analysis; settings: in vivo
Cytochrome P450 2C8 = molecular target: T1, Cytochrome P450 2C8 (Homo sapiens, UniProt P10632); assay: Inhibition of CYP2C8 in human liver microsomes using amodiaquine as substrate in presence of NADPH; assay type: ADME, Microsome
T1 sequence (P10632 whole entry): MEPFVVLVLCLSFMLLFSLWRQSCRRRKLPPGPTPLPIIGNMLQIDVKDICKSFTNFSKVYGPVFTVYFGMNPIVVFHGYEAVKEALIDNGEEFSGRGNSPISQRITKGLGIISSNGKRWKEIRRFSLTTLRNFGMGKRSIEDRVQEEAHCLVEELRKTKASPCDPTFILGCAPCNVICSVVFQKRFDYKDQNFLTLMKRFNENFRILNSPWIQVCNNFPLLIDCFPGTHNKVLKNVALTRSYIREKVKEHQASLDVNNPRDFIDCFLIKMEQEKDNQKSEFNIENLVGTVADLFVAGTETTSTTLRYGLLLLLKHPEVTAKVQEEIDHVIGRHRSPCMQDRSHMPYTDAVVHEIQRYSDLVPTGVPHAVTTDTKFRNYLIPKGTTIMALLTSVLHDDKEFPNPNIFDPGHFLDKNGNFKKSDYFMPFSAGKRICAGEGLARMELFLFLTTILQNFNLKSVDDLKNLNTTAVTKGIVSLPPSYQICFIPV

[25] = Plasma protein binding in dog at 10 uM incubated for 6 hrs by equilibrium dialysis based LC-MS/MS method; assay type: ADME, cell-free, Canis lupus familiaris; settings: read-out: PPB (converted)
in vitro [26] = settings: dog, hepatocytes
in vivo [27] = settings: female, Sprague-Dawley, rat, po, 30 mg/kg
[28] = molecular target: T2, Protein cereblon/Mitogen-activated protein kinase kinase kinase kinase 1 (Homo sapiens, UniProt Q92918+Q96SW2); assay: PROTAC activity at CRBN/HPK1 in human Jurkat cells assessed as HPK1 degradation at 1 uM after 4 hrs by Western blotting analysis; assay type: cell-based
[29] = molecular target: T2, Protein cereblon/Mitogen-activated protein kinase kinase kinase kinase 1; assay: PROTAC activity at CRBN/HPK1 in human Jurkat cells assessed as HPK1 degradation measured after 24 hrs by Western blotting analysis; assay type: cell-based; settings: dose 1-2000 nM
[30] = molecular target: T2, Protein cereblon/Mitogen-activated protein kinase kinase kinase kinase 1; assay: PROTAC activity at CRBN/HPK1 in human Jurkat cells assessed as HPK1 degradation at 1 uM measured after 24 hrs by Western blotting analysis; assay type: cell-based
[31] = Metabolic stability in mouse hepatocytes assessed as intrinsic clearance at 1 uM incubated for 90 mins by LC-MS/MS method; assay type: ADME, cell-based, Hepatocyte; settings: 1.5 h
[32] = Metabolic stability in monkey hepatocytes assessed as intrinsic clearance at 1 uM incubated for 90 mins by LC-MS/MS method; assay type: ADME, cell-based, Macaca mulatta, Hepatocyte; settings: rhesus monkey, 1.5 h
in vitro [33] = settings: rat, hepatocytes
Cytochrome P450 3A4 = Cytochrome P450 3A4 (Homo sapiens, UniProt P08684); assay: Inhibition of CYP3A4 in human liver microsomes using midazolam as substrate in presence of NADPH; assay type: ADME, Microsome
Chain of Cytochrome P450 3A4 (P08684 whole entry): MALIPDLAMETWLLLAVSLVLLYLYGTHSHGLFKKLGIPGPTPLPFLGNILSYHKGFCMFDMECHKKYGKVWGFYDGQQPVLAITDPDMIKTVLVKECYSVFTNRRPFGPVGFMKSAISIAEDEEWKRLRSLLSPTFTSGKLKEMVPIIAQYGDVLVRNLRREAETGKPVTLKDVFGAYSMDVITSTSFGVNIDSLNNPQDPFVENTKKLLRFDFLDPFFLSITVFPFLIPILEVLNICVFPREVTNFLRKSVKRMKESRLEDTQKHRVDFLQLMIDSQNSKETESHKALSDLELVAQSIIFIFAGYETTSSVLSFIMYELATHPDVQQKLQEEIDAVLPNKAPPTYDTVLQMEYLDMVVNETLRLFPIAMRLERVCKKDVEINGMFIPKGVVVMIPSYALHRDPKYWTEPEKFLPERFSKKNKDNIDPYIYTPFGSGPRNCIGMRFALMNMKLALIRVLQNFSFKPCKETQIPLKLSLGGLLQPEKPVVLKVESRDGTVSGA

T2 sequence (Q92918 whole entry, looked up): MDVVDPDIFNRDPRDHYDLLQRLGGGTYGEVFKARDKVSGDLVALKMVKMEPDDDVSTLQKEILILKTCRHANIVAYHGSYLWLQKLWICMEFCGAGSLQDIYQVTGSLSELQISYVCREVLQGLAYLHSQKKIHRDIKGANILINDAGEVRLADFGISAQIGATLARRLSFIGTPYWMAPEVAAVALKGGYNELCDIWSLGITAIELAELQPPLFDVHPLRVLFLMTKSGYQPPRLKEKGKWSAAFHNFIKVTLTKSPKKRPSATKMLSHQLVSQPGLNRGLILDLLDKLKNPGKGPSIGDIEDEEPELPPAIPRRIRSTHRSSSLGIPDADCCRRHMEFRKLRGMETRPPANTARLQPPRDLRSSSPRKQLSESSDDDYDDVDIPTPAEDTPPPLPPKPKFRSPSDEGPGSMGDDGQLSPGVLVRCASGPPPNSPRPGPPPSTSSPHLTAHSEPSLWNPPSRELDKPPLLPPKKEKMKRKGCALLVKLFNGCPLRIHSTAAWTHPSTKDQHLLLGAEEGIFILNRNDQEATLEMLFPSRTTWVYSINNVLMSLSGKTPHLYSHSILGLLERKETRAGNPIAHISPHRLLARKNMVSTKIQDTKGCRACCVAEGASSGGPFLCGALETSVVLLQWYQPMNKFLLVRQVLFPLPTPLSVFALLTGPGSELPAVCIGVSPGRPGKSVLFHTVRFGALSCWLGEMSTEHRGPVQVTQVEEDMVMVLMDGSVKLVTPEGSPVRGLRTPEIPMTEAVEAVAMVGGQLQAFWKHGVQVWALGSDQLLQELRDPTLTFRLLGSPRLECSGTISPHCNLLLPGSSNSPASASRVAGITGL
T2 sequence (Q96SW2 whole entry, looked up): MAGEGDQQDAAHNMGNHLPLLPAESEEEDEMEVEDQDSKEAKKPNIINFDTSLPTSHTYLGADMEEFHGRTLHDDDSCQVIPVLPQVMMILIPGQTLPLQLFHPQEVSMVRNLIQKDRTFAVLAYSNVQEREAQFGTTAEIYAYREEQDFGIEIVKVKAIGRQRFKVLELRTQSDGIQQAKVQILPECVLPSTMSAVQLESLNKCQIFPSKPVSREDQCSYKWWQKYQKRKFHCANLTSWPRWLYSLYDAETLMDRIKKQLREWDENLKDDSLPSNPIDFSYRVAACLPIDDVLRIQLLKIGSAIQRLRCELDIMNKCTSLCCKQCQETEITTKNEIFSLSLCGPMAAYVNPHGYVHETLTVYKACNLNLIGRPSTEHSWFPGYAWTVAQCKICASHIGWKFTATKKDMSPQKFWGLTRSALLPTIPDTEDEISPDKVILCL
Chain of hERG (KCNH2) (Q12809 whole entry): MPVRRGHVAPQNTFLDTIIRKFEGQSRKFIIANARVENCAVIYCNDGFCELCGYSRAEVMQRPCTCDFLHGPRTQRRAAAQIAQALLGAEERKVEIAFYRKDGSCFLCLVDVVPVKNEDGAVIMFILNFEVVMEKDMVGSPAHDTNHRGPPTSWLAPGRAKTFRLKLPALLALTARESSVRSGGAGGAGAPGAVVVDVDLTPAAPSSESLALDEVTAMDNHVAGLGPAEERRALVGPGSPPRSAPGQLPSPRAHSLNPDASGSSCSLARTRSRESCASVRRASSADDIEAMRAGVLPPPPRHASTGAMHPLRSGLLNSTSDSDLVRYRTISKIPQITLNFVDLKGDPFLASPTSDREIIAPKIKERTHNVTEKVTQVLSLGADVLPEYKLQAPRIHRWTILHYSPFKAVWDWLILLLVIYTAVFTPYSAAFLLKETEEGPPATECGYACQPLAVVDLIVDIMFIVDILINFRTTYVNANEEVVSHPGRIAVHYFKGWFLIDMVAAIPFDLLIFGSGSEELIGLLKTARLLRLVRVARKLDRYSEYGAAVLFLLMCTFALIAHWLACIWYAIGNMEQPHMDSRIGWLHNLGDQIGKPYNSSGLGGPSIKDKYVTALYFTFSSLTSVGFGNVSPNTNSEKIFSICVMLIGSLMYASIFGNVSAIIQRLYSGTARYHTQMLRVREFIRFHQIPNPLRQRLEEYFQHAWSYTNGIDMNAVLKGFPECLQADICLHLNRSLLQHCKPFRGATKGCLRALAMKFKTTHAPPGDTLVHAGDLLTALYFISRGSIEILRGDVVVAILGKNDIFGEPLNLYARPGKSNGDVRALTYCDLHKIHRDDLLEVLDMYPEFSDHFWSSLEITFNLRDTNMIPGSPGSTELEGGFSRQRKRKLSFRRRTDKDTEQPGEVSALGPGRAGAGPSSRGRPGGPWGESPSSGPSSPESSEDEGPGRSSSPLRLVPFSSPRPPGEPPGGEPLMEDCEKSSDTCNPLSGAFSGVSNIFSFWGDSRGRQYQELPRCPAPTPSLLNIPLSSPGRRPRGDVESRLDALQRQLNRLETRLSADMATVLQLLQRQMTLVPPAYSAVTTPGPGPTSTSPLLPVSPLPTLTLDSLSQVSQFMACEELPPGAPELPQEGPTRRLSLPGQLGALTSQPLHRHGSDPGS

Tmax [2]: 8 h
Cmax at 24 h (in vivo [4]): 3180 ng/mL
bioavailability at 24 h (in vivo [5]): 16%
clearance [7]: 0.598 mL/min/kg
Tmax [8]: 8 h
bioavailability at 24 h (in vivo [9]): 43.7%
Drug metabolism [11]: metabolite_detected
C0 at 24 h [13]: 1590 ng/mL
CLH [14]: 2.97 µL/min/mg
AUC at 336 h (in vivo [15]): 645 ng·h/mL
half-life at 1.5 h, 1 µM (in vitro [16]): 7.62 h
AUC(0-inf) [18]: 8220 ng·h/mL
Drug metabolism [19]: metabolite_detected
Tmax [21]: 3.17 h
Drug uptake [22]: Active
Cmax at 24 h (in vivo [23]): 84 ng/mL
half-life at 24 h [24]: 5.15 h
IC50 (Cytochrome P450 2C8): > 10 µM
fraction unbound at 6 h, 10 µM [25]: 0.0004
half-life at 1.5 h, 1 µM (in vitro [26]): 3.47 h
Cmax at 24 h (in vivo [27]): 4900 ng/mL
Activity [28]: 55.6%
Activity [29]: Dose-dependent-effect
Activity [30]: Active
CLH [31]: 1.52 µL/min/mg
CLH [32]: 8.85 µL/min/mg
half-life at 1.5 h, 1 µM (in vitro [33]): 3.9 h
IC50 (Cytochrome P450 3A4): > 10 µM
Structure (SMILES): O=C1CCN(c2cc(C(=O)N3CCC(CC4CCN(c5ccc(-c6cnc7[nH]cc(-c8cnn(CC(F)(F)F)c8)c7n6)cn5)CC4)CC3)ccc2Cl)C(=O)N1
Activity (MC-38 [1]): 0.3 g
Activity (MC-38 [3]): 338.13 mm3
Activity [6]: Non-toxic
Activity (MC-38 [10]): 1.17 g
AUC at 336 h [12]: 291 ng·h/mL
inhibition at 3 µM (hERG (KCNH2)): 4.36%
Emax at 0.5 mg/kg [17]: 61.3%
Activity [20]: Non-toxic
